Laboratory results published in US20220306695A1, “COMPSTATIN ANALOGUES AND THEIR MEDICAL USES” (priority 2019, published 2022).
pIC50: −log10 of the molar value. Where two headings read alike, the source gives them in different places. Starred links: 1 amine or outer side, 2 acyl side, 3 side chain; linkers in the order of their positions; H or OH if unused. Positions of bridges follow the written chain, without caps; N, C: chain ends. Non-standard residues stand in square brackets, D forms with d. Residues, ends and D or L forms follow the SMILES beside them. Groups on a side chain read outwards from the residue. *: point of attachment. Trp(1-Me) = Cn1cc(C[C@H](N)C(=O)O)c2ccccc21; Abu(4-yl) = O=C([C@H](CC[*:3])N[*:1])[*:2]; C18 diacid = O=C(O)CCCCCCCCCCCCCCCCC(=O)*; γGlu = O=C(O)[C@H](CCC(=O)[*:2])N[*:1]; Nva = CCC[C@H](N)C(=O)O; AEEA = NCCOCCOCC(=O)O; Sar = CNCC(=O)O

Test system: classical complement pathway
Assay: In vitro haemolysis assay (inhibition of classical complement pathway)
Assay type: cell-based, human
Conditions: for IC50: Table 3
Summary of the method: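 Serially diluted compound (9 points) was preincubated 15 min at room temperature with diluted human serum, titrated per batch to give 70-90% maximal haemolysis, in Tris/casein buffer pH 7.4 with Mg2+/Ca2+. Antibody-sensitized sheep erythrocytes were then added for 30 min at 37° C, and the reaction was stopped with EDTA. Haemolysis was read at A405, with IC50 from 4PL fit.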

[1] = human serum, sensitized sheep red blood cells, read-out: IC50[nM], in vitro analysis of inhibition of hemolysis
[2] = Table 4, valine 3 versus isoleucine 3 pairs, read-out: CP hemolysis IC50
[3] = Table 5, different residues at position 3 of Ac-IC(1)XWQDWGEHRC(1)T-NH2, read-out: IC50, CP hemolysis

With `CC[C@H](C)[C@@H]1NC(=O)[C@@H](NC(=O)[C@H](Cc2ccccc2)NC(=O)[C@H](CCC(=O)O)NC(=O)[C@H](CO)NC(C)=O)CSCC[C@@H](C(=O)N[C@H](C(=O)N[C@@H](CCC(=O)O)C(=O)NCC(=O)N[C@@H](CCC(=O)O)C(=O)NCCOCCOCC(=O)N[C@@H](CCC(=O)O)C(=O)N[C@@H](CO)C(=O)N[C@@H](CCCCNC(=O)CC[C@H](NC(=O)CCCCCCCCCCCCCCCCC(=O)O)C(=O)O)C(=O)O)[C@@H](C)O)NC(=O)[C@H](CCCNC(=N)N)NC(=O)[C@H](Cc2c[nH]cn2)NC(=O)[C@H](CCC(=O)O)NC(=O)CNC(=O)[C@H](Cc2c[nH]c3ccccc23)NC(=O)[C@H](CC(=O)O)NC(=O)[C@H](CCC(N)=O)NC(=O)[C@H](Cc2cn(C)c3ccccc23)NC1=O` [Compound 163, Ac-SEFA(1)I[1-Me-Trp]QDWGEHRhC(1)TEGE[Peg3]ES-K([17-carboxy-heptadecanoyl][γGlu])-OH] (Ac-SEFCI[Trp(1-Me)]QDWGEHR[Abu(4-yl)]TEGE[AEEA]ESK([γGlu-C18 diacid])-OH; thioether 4-14) the IC50 [1] was < 100 nM.

For `CC[C@H](C)[C@@H]1NC(=O)[C@@H](NC(=O)[C@H](Cc2ccccc2)NC(=O)[C@H](CCC(=O)O)NC(=O)[C@H](CO)NC(C)=O)CCSC[C@@H](C(=O)N(C)CC(=O)N[C@@H](CCC(=O)O)C(=O)NCCOCCOCC(=O)NCCOCCOCC(=O)N[C@@H](CCCCNC(=O)CC[C@H](NC(=O)CNC(=O)CC[C@H](NC(=O)CCCCCCCCCCCCCCCCC(=O)O)C(=O)O)C(=O)O)C(N)=O)NC(=O)[C@H](CCCNC(=N)N)NC(=O)[C@H](Cc2c[nH]cn2)NC(=O)[C@H](CCC(=O)O)NC(=O)CN(C)C(=O)[C@H](Cc2c[nH]c3ccccc23)NC(=O)[C@H](CC(=O)O)NC(=O)[C@H](CCC(N)=O)NC(=O)[C@H](Cc2cn(C)c3ccccc23)NC1=O` [Compound 164, Ac-SEFhC(1)I[1-Me-Trpp]QDW[Sar]EHRA(1)[Sar]E[Peg3][Peg3]-K([17-carboxy-heptadecanoyl][γGlu]G[γGlu])-NH2] (Ac-SEF[Abu(4-yl)]I[Trp(1-Me)]QDW[Sar]EHRC[Sar]E[AEEA][AEEA]K([γGlu-Gly-γGlu-C18 diacid])-NH2; thioether 4-14), the IC50 [1] was < 100 nM.

With `CC[C@H](C)[C@@H]1NC(=O)[C@@H](NC(=O)[C@H](Cc2ccccc2)NC(=O)[C@H](CCC(=O)O)NC(=O)[C@H](CO)NC(C)=O)CCSC[C@@H](C(=O)N[C@H](C(=O)N[C@@H](CCC(=O)O)C(=O)NCC(=O)N[C@@H](CCC(=O)O)C(=O)NCCOCCOCC(=O)N[C@@H](CCC(=O)O)C(=O)N[C@@H](CO)C(=O)N[C@@H](CCCCNC(=O)CC[C@H](NC(=O)CCCCCCCCCCCCCCCCC(=O)O)C(=O)O)C(N)=O)[C@@H](C)O)NC(=O)[C@H](CCCNC(=N)N)NC(=O)[C@H](Cc2c[nH]cn2)NC(=O)[C@H](CCC(=O)O)NC(=O)CNC(=O)[C@H](Cc2c[nH]c3ccccc23)NC(=O)[C@H](CC(=O)O)NC(=O)[C@H](CCC(N)=O)NC(=O)[C@H](Cc2cn(C)c3ccccc23)NC1=O` [Compound 165] (Ac-SEF[Abu(4-yl)]I[Trp(1-Me)]QDWGEHRCTEGE[AEEA]ESK([γGlu-C18 diacid])-NH2; thioether 4-14) the IC50 [1] was < 250 nM.

In the case of `CC[C@H](C)[C@@H]1NC(=O)[C@@H](NC(=O)[C@H](Cc2ccccc2)NC(=O)[C@H](CCC(=O)O)NC(=O)[C@H](CO)NC(C)=O)CCSC[C@@H](C(=O)N(C)CC(=O)N[C@@H](CCC(=O)O)C(=O)NCC(=O)N[C@@H](CCC(=O)O)C(=O)NCCOCCOCC(=O)NCCOCCOCC(=O)N[C@@H](CCCCNC(=O)CC[C@H](NC(=O)CNC(=O)CC[C@H](NC(=O)CCCCCCCCCCCCCCCCC(=O)O)C(=O)O)C(=O)O)C(N)=O)NC(=O)[C@H](CCCNC(=N)N)NC(=O)[C@H](Cc2c[nH]cn2)NC(=O)[C@H](CCC(=O)O)NC(=O)CNC(=O)[C@H](Cc2c[nH]c3ccccc23)NC(=O)[C@H](CCC(=O)O)NC(=O)[C@H](CCC(N)=O)NC(=O)[C@H](Cc2cn(C)c3ccccc23)NC1=O` [Compound 167] (Ac-SEF[Abu(4-yl)]I[Trp(1-Me)]QEWGEHRC[Sar]EGE[AEEA][AEEA]K([γGlu-Gly-γGlu-C18 diacid])-NH2; thioether 4-14), the IC50 [1] was < 500 nM.

For `CC[C@H](C)[C@H](N)C(=O)N[C@H]1CSSC[C@@H](C(=O)N[C@H](C(N)=O)[C@@H](C)O)NC(=O)[C@H](CCCN=C(N)N)NC(=O)[C@H](Cc2cnc[nH]2)NC(=O)[C@H](Cc2cnc[nH]2)NC(=O)CNC(=O)[C@H](Cc2c[nH]c3ccccc23)NC(=O)[C@H](CC(=O)O)NC(=O)[C@H](CCC(N)=O)NC(=O)[C@H](C(C)C)NC(=O)[C@H](C(C)C)NC1=O` [Compstatin], the IC50 (cells that print μM, read-out: IC50, in vitro analysis of inhibition of hemolysis) was > 5000 nM.

With `CC[C@H](C)[C@H](NC(C)=O)C(=O)N[C@H]1CSSC[C@@H](C(=O)N[C@H](C(=O)NCC(=O)N[C@@H](C)C(=O)N[C@@H](CCC(=O)O)C(=O)N[C@@H](CO)C(N)=O)[C@@H](C)O)NC(=O)[C@H](CCCNC(=N)N)NC(=O)[C@H](Cc2c[nH]cn2)NC(=O)[C@H](CCC(=O)O)NC(=O)CNC(=O)[C@H](Cc2c[nH]c3ccccc23)NC(=O)[C@H](CC(=O)O)NC(=O)[C@H](CCC(N)=O)NC(=O)[C@H](Cc2c[nH]c3ccccc23)NC(=O)[C@H](C(C)C)NC1=O` [D, reference compound] (Ac-ICVWQDWGEHRCTGAES-NH2; disulfide 2-12) the pIC50 [2] was 6.68.

`CC[C@H](C)[C@H](NC(C)=O)C(=O)N[C@H]1CSSC[C@@H](C(=O)N[C@H](C(N)=O)[C@@H](C)O)NC(=O)[C@H](CO)NC(=O)[C@H](Cc2c[nH]cn2)NC(=O)[C@H](CCC(=O)O)NC(=O)CNC(=O)[C@H](Cc2c[nH]c3ccccc23)NC(=O)[C@H](CC(=O)O)NC(=O)[C@H](CCC(N)=O)NC(=O)[C@H](Cc2c[nH]c3ccccc23)NC(=O)[C@H](C(C)C)NC1=O` [F, reference compound] (Ac-ICVWQDWGEHSCT-NH2; disulfide 2-12) was tested, and the pIC50 [2] was 6.27.

In the case of `CC[C@H](C)[C@H](NC(C)=O)C(=O)N[C@H]1CSSC[C@@H](C(=O)N[C@@H](CO)C(N)=O)NC(=O)[C@H](CCCNC(=N)N)NC(=O)[C@H](Cc2c[nH]cn2)NC(=O)[C@H](CCC(=O)O)NC(=O)CNC(=O)[C@H](Cc2c[nH]c3ccccc23)NC(=O)[C@H](CC(=O)O)NC(=O)[C@H](CCC(N)=O)NC(=O)[C@H](Cc2c[nH]c3ccccc23)NC(=O)[C@H](C(C)C)NC1=O` [G, reference compound] (Ac-ICVWQDWGEHRCS-NH2; disulfide 2-12), the pIC50 [2] was 6.74.

For `CC[C@H](C)[C@H](NC(=O)[C@H](C)NC(=O)[C@H](CO)NC(=O)CNC(=O)[C@H](CCC(=O)O)NC(C)=O)C(=O)N[C@H]1CSSC[C@@H](C(=O)N(C)CC(=O)N[C@@H](CCC(=O)O)C(N)=O)NC(=O)[C@H](CCCNC(=N)N)NC(=O)[C@H](Cc2c[nH]cn2)NC(=O)[C@H](CCC(=O)O)NC(=O)CNC(=O)[C@H](Cc2c[nH]c3ccccc23)NC(=O)[C@H](CC(=O)O)NC(=O)[C@H](CCC(N)=O)NC(=O)[C@H](Cc2c[nH]c3ccccc23)NC(=O)[C@H](C(C)C)NC1=O` [H, reference compound] (Ac-EGSAICVWQDWGEHRC[Sar]E-NH2; disulfide 6-16), the pIC50 [2] was 6.48.

Compound `CC[C@H](C)[C@H](NC(C)=O)C(=O)N[C@H]1CSSC[C@@H](C(=O)N[C@H](C(=O)N[C@@H](CCC(=O)O)C(=O)NCC(=O)N[C@@H](CCC(=O)O)C(N)=O)[C@@H](C)O)NC(=O)[C@H](CCCNC(=N)N)NC(=O)[C@H](Cc2c[nH]cn2)NC(=O)[C@H](CCC(=O)O)NC(=O)CNC(=O)[C@H](Cc2c[nH]c3ccccc23)NC(=O)[C@H](CC(=O)O)NC(=O)[C@H](CCC(N)=O)NC(=O)[C@H](Cc2c[nH]c3ccccc23)NC(=O)[C@H](C(C)C)NC1=O` [J, reference compound] (Ac-ICVWQDWGEHRCTEGE-NH2; disulfide 2-12) has a pIC50 [2] of 6.62.

Work on `CC(C)C[C@H](N)C(=O)O` [Leucine, reference compound] yielded a pIC50 [3] of 6.30.

Compound `CCCC[C@H](N)C(=O)O` [Norleucine, reference compound] has a pIC50 (Table 5, different residues at position 3 of Ac-IC(1)[…](1)T-NH2, read-out: IC50, CP hemolysis) of 6.32.

For `CCC[C@@H]1NC(=O)[C@@H](NC(=O)[C@@H](NC(C)=O)[C@@H](C)CC)CSSC[C@@H](C(=O)N[C@H](C(N)=O)[C@@H](C)O)NC(=O)[C@H](CCCNC(=N)N)NC(=O)[C@H](Cc2c[nH]cn2)NC(=O)[C@H](CCC(=O)O)NC(=O)CNC(=O)[C@H](Cc2c[nH]c3ccccc23)NC(=O)[C@H](CC(=O)O)NC(=O)[C@H](CCC(N)=O)NC(=O)[C@H](Cc2c[nH]c3ccccc23)NC1=O` [Norvaline, reference compound] (Ac-IC[Nva]WQDWGEHRCT-NH2; disulfide 2-12), the pIC50 [3] was < 6.00.

For `N[C@@H](Cc1ccccc1)C(=O)O` [Phenylalanine, reference compound], the pIC50 [3] was < 5.00.
